Assay results as given in patent US12252481B2, “Anti-viral compounds” (Aligos Therapeutics, Inc., priority 2021, dated 2025).
Like-named read-outs stand apart in the source and are kept apart here.

Legend:
[1] = target: T1, SARS-Cov-2 3CLpro (Severe acute respiratory syndrome coronavirus 2, UniProt P0DTD1); assay: biochemical; details: 3CLpro, 30 mins preincubation, SAMDI-MS; read-out: SARS-Cov-2 IC50 (class)
T1 construct: 3CLpro and HRV3C was added using a Multidrop Combi

[2] = target: T2, HRV3C (Human rhinovirus 14, UniProt P03303); assay: biochemical; parameters: species or system HRV; details: HRV3C, 30 mins preincubation, SAMDI-MS; read-out: HRV IC50 (bound)
T2 construct: 3CLpro and HRV3C was added using a Multidrop Combi

[3] = tested on: human beta-coronavirus OC43; assay: OC43 coronavirus antiviral assay in HeLa cells (cytopathic effect, cell-titer-glo); type: cell-based; details: Betacoronavirus 1, OC43, HeLa, 144 h, 6 days at 33° C.
[4] = tested on: B.1.1.7 lineage SARS-CoV-2; assay: microbe, parasite or virus in culture; type: cell-based; details: Severe acute respiratory syndrome coronavirus 2, 96 h, read-out: A549-dual_ACE2_TMPRSS2 (EC50)
[5] = target: T3, human cathepsin L (Homo sapiens, UniProt P07711); assay: Cathepsin L assay (Z-FR-AMC fluorescence); type: biochemical; details: 10 pM human cathepsin L, 30 mins preincubation, Z-FR-AMC 2 μM
T3 construct: purchased R&D Systems
Method: For the cathepsin L assay, 10 pM of human cathepsin L (R&D Systems; Minneapolis, MN) was preincubated for 30 mins with test compounds. Reactions were initiated by the addition of a peptide substrate Z—FR-AMC (final concentration 2 μM, Anaspec; Fremont, CA). Fluorescence was measured at 2-minute intervals for 30 mins using a 355/460 excitation/emission filter module on an Envision plate reader (Perkin Elmer; Waltham, MA). The IC50 values were calculated for each assay by fitting the curves using a four-parameter equation in GraphPad Prism.

T3 sequence (P07711 114-333): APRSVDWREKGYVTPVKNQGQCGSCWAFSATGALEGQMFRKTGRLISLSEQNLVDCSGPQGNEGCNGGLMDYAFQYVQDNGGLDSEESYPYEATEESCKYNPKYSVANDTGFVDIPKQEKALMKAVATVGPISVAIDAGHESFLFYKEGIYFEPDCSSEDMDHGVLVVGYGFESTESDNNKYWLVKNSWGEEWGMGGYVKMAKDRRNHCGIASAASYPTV
T2 sequence (P03303 1538-1719): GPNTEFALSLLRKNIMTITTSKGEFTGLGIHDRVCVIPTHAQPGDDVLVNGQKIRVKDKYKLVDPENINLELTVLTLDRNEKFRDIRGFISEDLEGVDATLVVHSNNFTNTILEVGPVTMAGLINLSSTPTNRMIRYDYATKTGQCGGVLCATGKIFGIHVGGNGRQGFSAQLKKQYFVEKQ

Structure (SMILES) | IC50 [1] | IC50 [2] | EC50 ([3]; read-out: EC50 (class)) | EC50 [4] | IC50 [5] | EC50 ([3]; read-out: EC50 (bound)) | EC50 ([4]; […], numeric bounds given instead of class symbols)
CC(C)(C)[C@H](NC(=O)C1(F)CC1)C(=O)N1C[C@@H]2[C@@H]3CC[C@@H](C3)[C@@H]2[C@H]1C(=O)N[C@H](C#N)C[C@@H]1CCNC1=O [Compound 64, (1S,2S,3S,6R,7R)—N-[(1S)-1-cyano-2-[(3S)-2-oxopyrrolidin-3-yl]ethyl]-4-[(2S)-2-[(1-fluorocyclopropyl)formamido]-3,3-dimethylbutanoyl]-4-azatricyclo[5.2.1.0^{2,6}]decane-3-carboxamide] | < 20 nM | > 10000 nM | < 100 nM | < 100 nM | ≥ 10000 nM |  | 
CC(C)(C)[C@H](NC(=O)C1(F)CCC1)C(=O)N1C[C@H]2[C@@H]([C@H]1C(=O)N[C@H](C#N)C[C@@H]1CCNC1=O)[C@H]1C=C[C@@H]2C1 [Compound 65, (1S,3aR,4S,7R,7aS)-N-((S)-1-cyano-2-((S)-2-oxopyrrolidin-3-yl)ethyl)-2-((S)-2-(1-fluorocyclobutane-1-carboxamido)-3,3-dimethylbutanoyl)-2,3,3a,4,7,7a-hexahydro-1H-4,7-methanoisoindole-1-carboxamide] | < 20 nM | > 10000 nM | < 100 nM | < 100 nM | ≥ 10000 nM |  | 
CC(C)(C)[C@H](NC(=O)C12CC(C1)C2)C(=O)N1C[C@H]2[C@@H]([C@H]1C(=O)N[C@H](C#N)C[C@@H]1CCNC1=O)[C@H]1C=C[C@@H]2C1 [Compound 66, (1S,3aR,4S,7R,7aS)-2-((S)-2-(bicyclo[1.1.1]pentane-1-carboxamido)-3,3-dimethylbutanoyl)-N-((S)-1-cyano-2-((S)-2-oxopyrrolidin-3-yl)ethyl)-2,3,3a,4,7,7a-hexahydro-1H-4,7-methanoisoindole-1-carboxamide] | < 20 nM | > 10000 nM | 100 to 1000 nM | 100 to 1000 nM | ≥ 10000 nM |  | 
CC(C)(C)[C@H](NC(=O)C(F)(Cl)Cl)C(=O)N1C[C@@H]2[C@@H]3CC[C@@H](C3)[C@@H]2[C@H]1C(=O)N[C@H](C#N)C[C@@H]1CCNC1=O [Compound 67, (1S,2S,3S,6R,7R)—N-[(1S)-1-cyano-2-[(3S)-2-oxopyrrolidin-3-yl]ethyl]-4-[(2S)-2-(2,2-dichloro-2-fluoroacetamido)-3,3-dimethylbutanoyl]-4-azatricyclo[5.2.1.0^{2,6}]decane-3-carboxamide] | < 20 nM | > 10000 nM | < 100 nM | < 100 nM | ≥ 10000 nM |  | 
C=CC1([C@H](NC(=O)C(F)(F)F)C(=O)N2C[C@H]3[C@@H]([C@H]2C(=O)N[C@H](C#N)C[C@@H]2CCNC2=O)[C@H]2C=C[C@@H]3C2)CCC1 [Compound 68, (1S,3aR,4S,7R,7aS)-N-((S)-1-cyano-2-((S)-2-oxopyrrolidin-3-yl)ethyl)-2-((S)-2-(2,2,2-trifluoroacetamido)-2-(1-vinylcyclobutyl)acetyl)-2,3,3a,4,7,7a-hexahydro-1H-4,7-methanoisoindole-1-carboxamide] | < 20 nM | > 10000 nM | < 100 nM | < 100 nM | ≥ 10000 nM |  | 
CC(C)(C)[C@H](NC(=O)C(F)(F)F)C(=O)N1C[C@H]2[C@H]3CC[C@H](CC3)[C@H]2[C@@H]1C(=O)N[C@H](C#N)C[C@@H]1CCNC1=O [Compound 71a] | 2000 to 20000 nM | > 10000 nM |  |  | ≥ 10000 nM | > 10000 nM | > 10000 nM
CC(C)(C)[C@H](NC(=O)C(F)F)C(=O)N1C[C@H]2[C@@H]([C@H]1C(=O)N[C@H](C#N)C[C@@H]1CCNC1=O)[C@H]1C=C[C@@H]2C1 [Compound 72, (1S,3aR,4S,7R,7aS)-N-((S)-1-cyano-2-((S)-2-oxopyrrolidin-3-yl)ethyl)-2-((S)-2-(2,2-difluoroacetamido)-3,3-dimethylbutanoyl)-2,3,3a,4,7,7a-hexahydro-1H-4,7-methanoisoindole-1-carboxamide] | < 20 nM | > 10000 nM | < 100 nM | < 100 nM | ≥ 10000 nM |  | 
CC(F)(F)C(=O)N[C@H](C(=O)N1C[C@H]2[C@@H]([C@H]1C(=O)N[C@H](C#N)C[C@@H]1CCNC1=O)[C@H]1C=C[C@@H]2C1)C(C)(C)C [Compound 73] | < 20 nM | > 10000 nM | < 100 nM | < 100 nM | ≥ 10000 nM |  | 
